Measurements taken from the NIST ThermoML archive (doi:10.1021/je2003622).
Numbers after ± are expanded uncertainties.

Key:
[1] = wn = mass fraction of the nth substance listed; details: 101 kPa, Liquid
[2] = mn = molality of the nth substance listed, in mol/kg; details: 101 kPa, Liquid

CO [methanol] + O
[1]
Details | mass density, 298.15 K [kg/m3] | mass density, 308.15 K [kg/m3] | mass density, 318.15 K [kg/m3] | mass density, 323.15 K [kg/m3] | viscosity, 298.15 K [mPa·s] | viscosity, 308.15 K [mPa·s] | viscosity, 318.15 K [mPa·s] | viscosity, 323.15 K [mPa·s]
w1 = 0.0806 | 982.97 ± 1.5 | 979.73 ± 1.6 | 976.04 ± 1.7 | 974.38 ± 1.8 | 1.084 ± 0.051 | 0.8665 ± 0.042 | 0.7017 ± 0.036 | 0.6375 ± 0.033
w1 = 0.1647 | 969.63 ± 1.4 | 966.32 ± 1.6 | 961.62 ± 1.7 | 958.75 ± 1.8 | 1.311 ± 0.061 | 1.022 ± 0.049 | 0.8075 ± 0.04 | 0.73 ± 0.037
w1 = 0.2526 | 956.2 ± 1.4 | 951.6 ± 1.6 | 946.26 ± 1.7 | 943.31 ± 1.8 | 1.471 ± 0.068 | 1.142 ± 0.054 | 0.8957 ± 0.044 | 0.8052 ± 0.04
w1 = 0.3446 | 939.57 ± 1.4 | 933.64 ± 1.5 | 931.4 ± 1.7 | 928 ± 1.8 | 1.448 ± 0.067 | 1.203 ± 0.056 | 0.9309 ± 0.045 | 0.8288 ± 0.041

CCCCCCCCCCCCOS(=O)(=O)[O-].[Na+] [sodium dodecyl sulfate] + O
[2]
Details | mass density [kg/m3]
298.15 K, m1 = 0.03036 | 998.33 ± 2.3
298.15 K, m1 = 0.04026 | 998.74 ± 2.3
298.15 K, m1 = 0.04734 | 999.03 ± 2.3
298.15 K, m1 = 0.05935 | 999.5 ± 2.3
298.15 K, m1 = 0.0771 | 1000.24 ± 2.3
298.15 K, m1 = 0.08753 | 1000.63 ± 2.3
298.15 K, m1 = 0.0992 | 1001.07 ± 2.3
298.15 K, m1 = 0.1159 | 1001.71 ± 2.3
308.15 K, m1 = 0.03046 | 995.13 ± 2.4
308.15 K, m1 = 0.0404 | 995.48 ± 2.4
308.15 K, m1 = 0.04749 | 995.73 ± 2.4
308.15 K, m1 = 0.05955 | 996.13 ± 2.4
308.15 K, m1 = 0.07737 | 996.76 ± 2.4
308.15 K, m1 = 0.08785 | 997.09 ± 2.5
308.15 K, m1 = 0.09957 | 997.46 ± 2.5
308.15 K, m1 = 0.1163 | 997.99 ± 2.5
318.15 K, m1 = 0.03059 | 991.17 ± 2.6
318.15 K, m1 = 0.04056 | 991.47 ± 2.6
318.15 K, m1 = 0.04769 | 991.69 ± 2.6
318.15 K, m1 = 0.0598 | 992.03 ± 2.6
318.15 K, m1 = 0.07771 | 992.57 ± 2.6
318.15 K, m1 = 0.08824 | 992.85 ± 2.6
318.15 K, m1 = 0.1 | 993.17 ± 2.6
318.15 K, m1 = 0.1169 | 993.63 ± 2.6
323.15 K, m1 = 0.03066 | 988.91 ± 2.6
323.15 K, m1 = 0.04066 | 989.19 ± 2.6
323.15 K, m1 = 0.0478 | 989.39 ± 2.6
323.15 K, m1 = 0.05995 | 989.71 ± 2.6
323.15 K, m1 = 0.0779 | 990.21 ± 2.6
323.15 K, m1 = 0.08845 | 990.47 ± 2.6
323.15 K, m1 = 0.1003 | 990.76 ± 2.6
323.15 K, m1 = 0.1172 | 991.18 ± 2.6
